Results taken from patent US20230111310A1, “CARBOXYLIC ACID DERIVATIVE-SUBSTITUTED IMINO ARYL COMPOUND, PREPARATION METHOD THEREFOR, HERBICIDAL COMPOSITION AND USE THEREOF” (Qingdao Kingagroot Chemical Compound Co., Ltd., priority 2020, published 2023).

Key:
Test in all cases: Weeding effect in post-emergence stage
Assay type in all cases: in vivo
Details in all cases: Dose 15 g/ha; level of fresh weight growth control rate
[1] = system: Alopecurus japonicus
Description: (§1) The activity level criteria for plant damage (i.e., growth control rate) are as follows:
(§2) Monocotyledonous and dicotyledonous weed seeds (Descurainia sophia, Capsella bursa-pastoris, Abutilon theophrasti, Galium aparine, Stellaria media, Lithospermum arvense, rorippa indica, Alopecurus aequalis, Alopecurus japonicus, Eleusine indica, Beckmannia syzigachne, Sclerochloa dura, Conyza Canadensis, Phleum paniculatum, Veronica didyma Tenore, Bromus japonicus, Aegilops tauschii, Phalaris arundinacea, Amaranthus retroflexus, Chenopodiaceae, Commelina communis, Sonchus arvensis, Convolvulus arvensis, Cirsium setosum, Bidens tripartita L., Solanum nigrum, Acalypha australis, Digitaria sanguinalis, Echinochloa crusgalli, Setaria viridis, Setaria glauca, Leptochloa chinensis, Monochoria vaginalis, Sagittaria trifolia, Scirpus juncoides, Cyperus rotundus, Cyperus iria, Cyperus difformis, Fimbristylis, Portulaca oleracea, Xanthium sibiricum, Pharbitis nil, etc.) and major crop seeds (wheat, corn, rice, soybean, cotton, oilseed rape, millet, sorghum, potato, sesame, ricinus, etc.) were placed in plastic pots filled with soil, then covered with 0.5-2 cm of soil, allowed to grow in a good greenhouse environment. After 2 weeks of sowing, the test plants were treated in the 2-3 leaf stage. The tested compounds of the present invention were respectively dissolved in acetone, then added with Tween 80 and 1.5 liter/ha of emulsifiable concentrate of methyl oleate as synergist, diluted with a certain amount of water to obtain a solution with a certain concentration, and sprayed with a spray tower onto the plants. After the application, the plants were cultured for 3 weeks in the greenhouse, and then the experimental results of the weeding were counted. […]

[2] = system: Eleusine indica
Description: as §1, §2

[3] = system: Abutilon theophrasti
Description: as §1, §2

[4] = system: Setaria viridis
Description: as §1, §2

[5] = system: Digitaria sanguinalis
Description: as §1, §2

[6] = system: Echinochloa crusgalli
Description: as §1
Monocotyledonous and dicotyledonous weed seeds (Descurainia sophia, Capsella bursa-pastoris, Abutilon theophrasti, Galium aparine, Stellaria media, Lithospermum arvense, rorippa indica, Alopecurus aequalis, Alopecurus japonicus, Eleusine indica, Beckmannia syzigachne, Sclerochloa dura, Conyza Canadensis, Phleum paniculatum, Veronica didyma Tenore, Bromus japonicus, Aegilops tauschii, Phalaris arundinacea, Amaranthus retroflexus, Chenopodiaceae, Commelina communis, Sonchus arvensis, Convolvulus arvensis, Cirsium setosum, Bidens tripartita L., Solanum nigrum, Acalypha australis, Digitaria sanguinalis, Echinochloa crusgalli, Setaria viridis, Setaria glauca, Leptochloa chinensis, Monochoria vaginalis, Sagittaria trifolia, Scirpus juncoides, Cyperus rotundus, Cyperus iria, Cyperus difformis, Fimbristylis, Portulaca oleracea, Xanthium sibiricum, Pharbitis nil, etc.) and major crop seeds (wheat, corn, rice, soybean, cotton, oilseed rape, millet, sorghum, potato, sesame, ricinus, etc.) were placed in plastic pots filled with soil, then covered with 0.5-2 cm of soil, allowed to grow in a good greenhouse environment. After 2 weeks of sowing, the test plants were treated in the 2-3 leaf stage. The tested compounds of the present invention were respectively dissolved in acetone, then added with Tween 80 and 1.5 liter/ha of emulsifiable concentrate of methyl oleate as synergist, diluted with a certain amount of water to obtain a solution with a certain concentration, and sprayed with a spray tower onto the plants. After the application, the plants were cultured for 3 weeks in the greenhouse, and then the experimental results of the weeding were counted. The doses of the used compounds were 500, 250, 125, 60, 30, 15, 7.5 g/ha, and the averages were obtained by repeating for three times.

CCOC(=O)COC(=O)C(C)O/N=C/c1cc(-n2c(=O)n(C)c(=S)n(C)c2=O)c(F)cc1Cl (racemic) [Compound 17]
Weeding effect in post-emergence stage, Alopecurus japonicus [1]: 5 (Level 5: growth control rate is above 85%) | Weeding effect in post-emergence stage, Eleusine indica [2]: 5 (Level 5: growth control rate is above 85%) | Weeding effect in post-emergence stage, Abutilon theophrasti [3]: 5 (Level 5: growth control rate is above 85%) | Weeding effect in post-emergence stage, Setaria viridis [4]: 5 (Level 5: growth control rate is above 85%) | Weeding effect in post-emergence stage, Digitaria sanguinalis [5]: 5 (Level 5: growth control rate is above 85%) | Weeding effect in post-emergence stage, Echinochloa crusgalli [6]: 5 (Level 5: growth control rate is above 85%)

CCOC(=O)C(C)O/N=C/c1cc(-n2c(=O)n(C)c(=S)n(C)c2=O)c(F)cc1C(F)(F)F (racemic) [Compound 86]
Weeding effect in post-emergence stage, Alopecurus japonicus [1]: 3 (Level 3: growth control rate is greater than or equal to 40% and less than 60%) | Weeding effect in post-emergence stage, Eleusine indica [2]: 5 (Level 5: growth control rate is above 85%) | Weeding effect in post-emergence stage, Abutilon theophrasti [3]: 5 (Level 5: growth control rate is above 85%) | Weeding effect in post-emergence stage, Setaria viridis [4]: 4 (Level 4: growth control rate is greater than or equal to 60% and less than 85%) | Weeding effect in post-emergence stage, Digitaria sanguinalis [5]: 3 (Level 3: growth control rate is greater than or equal to 40% and less than 60%) | Weeding effect in post-emergence stage, Echinochloa crusgalli [6]: 4 (Level 4: growth control rate is greater than or equal to 60% and less than 85%)

COC(=O)C(C)O/N=C/c1cc(-n2c(=O)n(C)c(=S)n(C)c2=O)c(F)cc1C#N (racemic) [Compound 87]
Weeding effect in post-emergence stage, Alopecurus japonicus [1]: 5 (Level 5: growth control rate is above 85%) | Weeding effect in post-emergence stage, Eleusine indica [2]: 5 (Level 5: growth control rate is above 85%) | Weeding effect in post-emergence stage, Abutilon theophrasti [3]: 5 (Level 5: growth control rate is above 85%) | Weeding effect in post-emergence stage, Setaria viridis [4]: 5 (Level 5: growth control rate is above 85%) | Weeding effect in post-emergence stage, Digitaria sanguinalis [5]: 5 (Level 5: growth control rate is above 85%) | Weeding effect in post-emergence stage, Echinochloa crusgalli [6]: 5 (Level 5: growth control rate is above 85%)

CCOC(=O)C(C)O/N=C/c1cc(-n2c(=O)n(C)c(=S)n(C)c2=O)c(F)cc1C#N (racemic) [Compound 88]
Weeding effect in post-emergence stage, Alopecurus japonicus [1]: 5 (Level 5: growth control rate is above 85%) | Weeding effect in post-emergence stage, Eleusine indica [2]: 5 (Level 5: growth control rate is above 85%) | Weeding effect in post-emergence stage, Abutilon theophrasti [3]: 5 (Level 5: growth control rate is above 85%) | Weeding effect in post-emergence stage, Setaria viridis [4]: 5 (Level 5: growth control rate is above 85%) | Weeding effect in post-emergence stage, Digitaria sanguinalis [5]: 5 (Level 5: growth control rate is above 85%) | Weeding effect in post-emergence stage, Echinochloa crusgalli [6]: 5 (Level 5: growth control rate is above 85%)

COC(=O)C(C)O/N=C/c1cc(-n2c(=O)n(C)c(=S)n(C)c2=S)c(F)cc1Cl (racemic) [Compound 124]
Weeding effect in post-emergence stage, Alopecurus japonicus [1]: 4 (Level 4: growth control rate is greater than or equal to 60% and less than 85%) | Weeding effect in post-emergence stage, Eleusine indica [2]: 5 (Level 5: growth control rate is above 85%) | Weeding effect in post-emergence stage, Abutilon theophrasti [3]: 5 (Level 5: growth control rate is above 85%) | Weeding effect in post-emergence stage, Setaria viridis [4]: 5 (Level 5: growth control rate is above 85%) | Weeding effect in post-emergence stage, Digitaria sanguinalis [5]: 5 (Level 5: growth control rate is above 85%) | Weeding effect in post-emergence stage, Echinochloa crusgalli [6]: 5 (Level 5: growth control rate is above 85%)

CCOC(=O)C(C)O/N=C/c1cc(-n2c(=O)n(C)c(=S)n(C)c2=S)c(F)cc1Br (racemic) [Compound 161]
Weeding effect in post-emergence stage, Alopecurus japonicus [1]: 4 (Level 4: growth control rate is greater than or equal to 60% and less than 85%) | Weeding effect in post-emergence stage, Eleusine indica [2]: 5 (Level 5: growth control rate is above 85%) | Weeding effect in post-emergence stage, Abutilon theophrasti [3]: 5 (Level 5: growth control rate is above 85%) | Weeding effect in post-emergence stage, Setaria viridis [4]: 5 (Level 5: growth control rate is above 85%) | Weeding effect in post-emergence stage, Digitaria sanguinalis [5]: 4 (Level 4: growth control rate is greater than or equal to 60% and less than 85%) | Weeding effect in post-emergence stage, Echinochloa crusgalli [6]: 5 (Level 5: growth control rate is above 85%)

COC(=O)C(C)O/N=C/c1cc(-n2c(=O)n(C)c(=O)n(C)c2=O)c(F)cc1Cl (racemic) [Compound 164]
Weeding effect in post-emergence stage, Alopecurus japonicus [1]: 5 (Level 5: growth control rate is above 85%) | Weeding effect in post-emergence stage, Eleusine indica [2]: 5 (Level 5: growth control rate is above 85%) | Weeding effect in post-emergence stage, Abutilon theophrasti [3]: 5 (Level 5: growth control rate is above 85%) | Weeding effect in post-emergence stage, Setaria viridis [4]: 5 (Level 5: growth control rate is above 85%) | Weeding effect in post-emergence stage, Digitaria sanguinalis [5]: 5 (Level 5: growth control rate is above 85%) | Weeding effect in post-emergence stage, Echinochloa crusgalli [6]: 5 (Level 5: growth control rate is above 85%)

CCSC(=O)C(C)O/N=C/c1cc(-n2c(=O)n(C)c(=S)n(C)c2=O)c(F)cc1Cl (racemic) [Compound 168]
Weeding effect in post-emergence stage, Alopecurus japonicus [1]: 5 (Level 5: growth control rate is above 85%) | Weeding effect in post-emergence stage, Eleusine indica [2]: 5 (Level 5: growth control rate is above 85%) | Weeding effect in post-emergence stage, Abutilon theophrasti [3]: 5 (Level 5: growth control rate is above 85%) | Weeding effect in post-emergence stage, Setaria viridis [4]: 5 (Level 5: growth control rate is above 85%) | Weeding effect in post-emergence stage, Digitaria sanguinalis [5]: 5 (Level 5: growth control rate is above 85%) | Weeding effect in post-emergence stage, Echinochloa crusgalli [6]: 5 (Level 5: growth control rate is above 85%)

COC(=O)CCNC(=O)C(C)O/N=C/c1cc(-n2c(=O)n(C)c(=S)n(C)c2=O)c(F)cc1Cl (racemic) [Compound 183]
Weeding effect in post-emergence stage, Alopecurus japonicus [1]: 5 (Level 5: growth control rate is above 85%) | Weeding effect in post-emergence stage, Eleusine indica [2]: 5 (Level 5: growth control rate is above 85%) | Weeding effect in post-emergence stage, Abutilon theophrasti [3]: 5 (Level 5: growth control rate is above 85%) | Weeding effect in post-emergence stage, Setaria viridis [4]: 5 (Level 5: growth control rate is above 85%) | Weeding effect in post-emergence stage, Digitaria sanguinalis [5]: 5 (Level 5: growth control rate is above 85%) | Weeding effect in post-emergence stage, Echinochloa crusgalli [6]: 5 (Level 5: growth control rate is above 85%)

CC(O/N=C/c1cc(-n2c(=O)cc(C(F)(F)F)n(C)c2=O)c(F)cc1Cl)C(=O)O (racemic) [Compound 193]
Weeding effect in post-emergence stage, Alopecurus japonicus [1]: 5 (Level 5: growth control rate is above 85%) | Weeding effect in post-emergence stage, Eleusine indica [2]: 5 (Level 5: growth control rate is above 85%) | Weeding effect in post-emergence stage, Abutilon theophrasti [3]: 5 (Level 5: growth control rate is above 85%) | Weeding effect in post-emergence stage, Setaria viridis [4]: 5 (Level 5: growth control rate is above 85%) | Weeding effect in post-emergence stage, Digitaria sanguinalis [5]: 5 (Level 5: growth control rate is above 85%) | Weeding effect in post-emergence stage, Echinochloa crusgalli [6]: 5 (Level 5: growth control rate is above 85%)
